Test results as given in patent US9193756B2, “Adrenomedullin production enhancer” (National University Corporation ASAHIKAWA MEDICAL COLLEGE, priority 2008, dated 2015).

Columns and labels:
distal colon blood flow [1] = test: Blood flow-increasing effects of components in crude drugs (1): hydroxysanshool, ginsenosides; assay type: in vivo, rat; details: for Rate of increase in VC: into the colon, mg/kg: H-sanshool 0.3, ginseng 30, ginsenoside Rb1 1, ginsenoside Rg1 1, mean
Protocol: Male SD rats (8 to 10 weeks of age, body weight 240 to 360 g) were used (n=2 to 6). Hydroxy-β-sanshool, ginsenoside Rb1, or ginsenoside Rg1 was added to a 1% aqueous solution of Tween 80 to obtain concentrations of 0.06 mg/mL, 0.2 mg/mL, and 0.2 mg/mL, respectively, and the resulting solutions were used as the respective test specimens for administration of individual crude drug components. Furthermore, test specimens for the administration of hydroxysanshool with a ginseng extract, ginsenoside Rb1, or ginsenoside Rg1 in combination were prepared by adding, to a 1% aqueous solution of Tween 80, hydroxysanshool at a concentration of 0.06 mg/mL, and a powdered ginseng extract, ginsenoside Rb1, or ginsenoside Rg1 at a concentration of 6 mg/mL, 0.2 mg/mL, or 0.2 mg/mL, respectively. After preliminarily placing an 18 G Surflo indwelling needle inserted through the caecum, 5 mL/kg portions of test specimens which had been kept warm at 37° C. were administered into the colon 0.5 to 1 hour later, by which time baseline blood flow had stabilized. A control group was administered a 1% aqueous solution of Tween 80.
A polyethylene tube with an inner diameter of 0.8 mm was inserted through the left common carotid artery of an anesthetized rat, and the tip was left indwelling in the left ventricle. A tracheal cannula was placed indwelling in the trachea and connected to a respirator (SN-480-7); artificial respiration was then performed at a frequency of 60 RPM. Body temperature was maintained at 37±0.5° C. by a temperature controller (NS-TC10). […] The results of measurement are expressed as the mean value±standard error (S.E.M.). Comparison of effects was performed by one-way analysis of variance (ANOVA), followed by the Scheffe multiple comparison test. A risk rate of 5% or less was employed as the significance level.

distal colon blood flow [2] = test: Blood flow-increasing effects of components in crude drugs (2): 6-shogaol; assay type: in vivo, rat; details: for Rate of increase in VC: into the colon, mg/kg: 6-shogaol 2, ginsenoside Rb1 1
Protocol: Male SD rats (8 to 10 weeks of age) were used. 6-Shogaol was added to a 1% aqueous solution of Tween 80 to obtain a concentration of 0.4 mg/mL, and the resulting solution was used as a test specimen. Furthermore, ginsenoside Rb1 and 6-shogaol were added to a 1% aqueous solution of Tween 80 at concentrations of 0.2 mg/mL and 0.4 mg/mL, respectively, to prepare test specimens. After preliminarily placing an 18 G Surflo indwelling needle inserted through the caecum, 5 mL/kg portions of test specimens which had been kept warm at 37° C. were administered into the colon 0.5 to 1 hour later, by which time baseline blood flow had stabilized. A control group was administered 1% aqueous solution of Tween 80.
A polyethylene tube with an inner diameter of 0.8 mm was inserted through the left common carotid artery of an anesthetized rat, and the tip was left indwelling in the left ventricle. A tracheal cannula was placed indwelling in the trachea and connected to a respirator (SN-480-7); artificial respiration was then performed at a frequency of 60 RPM. Body temperature was maintained at 37±0.5° C. by a temperature controller (NS-TC10).

Compound | Rate of increase in VC (distal colon blood flow [1]; 15 min) [%] | Rate of increase in VC (distal colon blood flow [1]; 30 min) [%] | Rate of increase in VC (distal colon blood flow [1]; 45 min) [%] | Rate of increase in VC (distal colon blood flow [1]; 60 min) [%] | Rate of increase in VC (distal colon blood flow [1]; 75 min) [%] | Rate of increase in VC (distal colon blood flow [1]; 90 min) [%] | Blood flow / VC increase (in words) (distal colon blood flow [1]; Example 4, administration into the colon) | Rate of increase in VC (distal colon blood flow [2]; 15 min) [%] | Rate of increase in VC (distal colon blood flow [2]; 30 min) [%] | Rate of increase in VC (distal colon blood flow [2]; 45 min) [%] | Rate of increase in VC (distal colon blood flow [2]; 60 min) [%] | Rate of increase in VC (distal colon blood flow [2]; 75 min) [%] | Rate of increase in VC (distal colon blood flow [2]; 90 min) [%] | Blood flow increase (in words) (distal colon blood flow [2]; Example 5, administration into the colon) | Time of peak increase in blood flow (distal colon blood flow [2]; after administration into the colon) [min]
C/C=C/C=C/C=C/CC/C=C/C(=O)NCC(C)(C)O [H-sanshool, Hydroxy-β-sanshool] | 3.89 | 5.79 | 2.09 | 9.46 | 8.58 | 4.19 | did not increase blood flow |  |  |  |  |  |  |  | 
CCCCC/C=C/C(=O)CCc1ccc(O)c(OC)c1 [6-Shogaol, 6-shogaol] |  |  |  |  |  |  |  | 58.32 | 61.20 | 53.07 | 42.55 | 46.68 | 32.92 | induced an increase in blood flow | 30
CC(C)=CCC[C@](C)(O[C@@H]1O[C@H](CO[C@@H]2O[C@H](CO)[C@@H](O)[C@H](O)[C@H]2O)[C@@H](O)[C@H](O)[C@H]1O)[C@H]1CC[C@]2(C)[C@@H]1[C@H](O)C[C@@H]1[C@@]3(C)CC[C@H](O[C@@H]4O[C@H](CO)[C@@H](O)[C@H](O)[C@H]4O[C@@H]4O[C@H](CO)[C@@H](O)[C@H](O)[C@H]4O)C(C)(C)[C@@H]3CC[C@]12C [Ginsenoside Rb1, ginsenoside Rb1] | 11.72 | 18.87 | 60.21 | 26.20 | 40.81 | 19.98 |  |  |  |  |  |  |  |  | 
CC(C)=CCC[C@](C)(O[C@@H]1O[C@H](CO)[C@@H](O)[C@H](O)[C@H]1O)[C@H]1CC[C@]2(C)[C@@H]1[C@H](O)C[C@@H]1[C@@]3(C)CC[C@H](O)C(C)(C)[C@@H]3[C@@H](O[C@@H]3O[C@H](CO)[C@@H](O)[C@H](O)[C@H]3O)C[C@]12C [Ginsenoside Rg1, ginsenoside Rg1] | −10.83 | 5.84 | 16.29 | 10.92 | 12.25 | 18.11 |  |  |  |  |  |  |  |  | 
